Reference: patent publication US20180201654A1, “PEPTIDE INHIBITORS OF HAUSP DEUBIQUITINASE” (priority 2012, published 2018)
Where two headings read alike, the source gives them in different places.

Experiments:
HAUSP (USP7) [1] = target: T1, HAUSP (USP7) (Homo sapiens, UniProt Q93009); experiment: In vitro DUB assay with ubiquitinated MDM2 as substrate; details: HAUSP preincubated with increasing amounts of peptide; 1 h at 37° C.
USP8 = target: T2, USP8 (Homo sapiens, UniProt P40818); experiment: In vitro deubiquitination assay with purified USP8; assay type: biochemical; details: 0.25 μM purified USP8 pre-mixed with peptide for 5 min; K48- or K63-linked chains
T2 sequence (P40818 1-1118): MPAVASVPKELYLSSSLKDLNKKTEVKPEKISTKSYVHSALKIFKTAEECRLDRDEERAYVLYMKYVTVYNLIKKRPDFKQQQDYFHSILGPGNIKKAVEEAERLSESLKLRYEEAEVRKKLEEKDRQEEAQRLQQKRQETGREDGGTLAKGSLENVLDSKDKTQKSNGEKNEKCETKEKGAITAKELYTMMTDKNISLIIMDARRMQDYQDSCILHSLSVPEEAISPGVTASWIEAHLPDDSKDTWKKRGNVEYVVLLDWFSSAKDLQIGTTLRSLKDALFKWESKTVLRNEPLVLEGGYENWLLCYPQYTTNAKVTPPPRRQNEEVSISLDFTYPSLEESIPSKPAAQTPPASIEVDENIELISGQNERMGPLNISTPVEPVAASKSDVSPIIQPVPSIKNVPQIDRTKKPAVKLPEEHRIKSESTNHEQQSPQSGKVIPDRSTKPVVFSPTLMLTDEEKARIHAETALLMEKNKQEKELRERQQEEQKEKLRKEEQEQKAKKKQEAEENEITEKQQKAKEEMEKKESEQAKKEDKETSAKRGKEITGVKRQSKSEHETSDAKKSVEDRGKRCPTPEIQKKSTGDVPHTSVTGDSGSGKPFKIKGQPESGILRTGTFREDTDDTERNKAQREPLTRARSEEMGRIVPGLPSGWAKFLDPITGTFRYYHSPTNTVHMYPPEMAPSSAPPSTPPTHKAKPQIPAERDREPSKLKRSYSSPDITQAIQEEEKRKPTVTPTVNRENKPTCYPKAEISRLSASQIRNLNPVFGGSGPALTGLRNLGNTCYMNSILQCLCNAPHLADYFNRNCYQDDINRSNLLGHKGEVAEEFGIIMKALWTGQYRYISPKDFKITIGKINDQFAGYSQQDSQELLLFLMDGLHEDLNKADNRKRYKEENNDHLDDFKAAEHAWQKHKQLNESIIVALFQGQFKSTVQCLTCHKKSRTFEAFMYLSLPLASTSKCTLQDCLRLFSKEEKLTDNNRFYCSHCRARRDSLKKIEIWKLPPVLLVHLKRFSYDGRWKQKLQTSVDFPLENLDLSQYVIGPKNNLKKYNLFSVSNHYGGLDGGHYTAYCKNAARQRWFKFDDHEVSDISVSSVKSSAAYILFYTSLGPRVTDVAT

[2] = tested on: p53, p21, MDM2 and HAUSP levels in PEL cells; experiment: Western blot of p53 and its transcriptional targets in PEL cells; assay type: cell-based, human; details: peptide treatment
Source text: (§1) FIG. 3a-3g. […] Data are culled from 3 independent experiments.

HAUSP (USP7) [3] = target: T1, HAUSP (USP7); details: time-course, K48-Ub3-7 chains, 37° C.
[4] = tested on: primary TKI-resistant Ph^+ and normal ALL cells; experiment: Long-term cell culture of TKI-resistant ALL cells; assay type: cell-based, human; details: single agent, FIG. 15
Source text: To test whether vif1 and vif2 peptides have killing effect on relapse leukemia, this example chose two different karyotype relapse ALL cells: Ph^+BCR-ABL^T3151 and normal. The T3151 mutation is one of the common mechanism of escape and resistance against all kinds of tyrosine kinase inhibitors (TKIs). After treatment of these peptides into several different relapse ALL cells, this example performed Trypan blue staining to select dead cells in time dependent manner. […] This example next validated the effect of nilotinib/TAT-vif1 (or TAT-vif2) combination on primary TKI-resistance in Ph^+ and normal ALL during long-term cell culture.

[5] = target: T3, HAUSP TRAF domain HAUSP^62-205 (Homo sapiens, UniProt Q93009); assay type: binding; design: All residues of HAUSP^62-205, with the exception of Asp^62, are included in the final model; hexahistidine tag (TEV-cleavable) (cleaved yes); made in house; host or cells: E. coli BL21 (DE3) RIPL; details: for n: ITC binding stoichiometry, 150 mM NaCl, 10 mM HEPES (pH 7.0)
T3 sequence (Q93009 62-205): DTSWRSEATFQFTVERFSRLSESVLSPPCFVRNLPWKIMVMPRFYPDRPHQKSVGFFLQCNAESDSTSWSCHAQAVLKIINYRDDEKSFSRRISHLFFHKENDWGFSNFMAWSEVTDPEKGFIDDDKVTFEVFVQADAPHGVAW
Procedure: FIG. 5. Typical isothermal titration calorimetric measurements of the interactions between the HAUSP TRAF domain and the vIRF4 protein derivatives or other peptides. Purified proteins and synthesized peptides were reconstituted in 150 mM NaCl and 10 mM HEPES (pH 7.0). The calorimetric assays were performed using a VPITC system. All experiments were carried out with a stirring speed of 300 rpm at 20° C., and the thermal power was recorded every 10 s. Data were analyzed using the ORIGIN software package (version 7.0). […] Each titration against the HAUSP TRAF domain is indicated in each panel.
(§2) Purified proteins and synthesized peptides (Peptron Inc., Deajeon, Korea) were reconstituted in 150 mM NaCl and 10 mM HEPES (pH 7.0). The calorimetric assays were performed using a VP-ITC system (MicroCal Inc., Northampton, Mass.). Samples were degassed by vacuum aspiration for 15 min prior to loading. All experiments were carried out with a stirring speed of 300 rpm at 20° C., and the thermal power was recorded every 10 s. Data were analyzed using the ORIGIN software package (version 7.0) supplied with the instrument. […] (SEQ ID NO: 6); EBNA1^435-449, […] (SEQ ID NO: 7); MDM2^137-152, […] […] (SEQ ID NO: 10). Each set of ITC experiments was repeated two or three times.

HAUSP TRAF domain = target: T4, HAUSP TRAF domain (Homo sapiens, UniProt Q93009); assay type: binding
T4 construct: All residues of HAUSP^62-205, with the exception of Asp^62, are included in the final model; hexahistidine tag (TEV-cleavable) (cleaved yes); made in house; host or cells: E. coli BL21 (DE3) RIPL
T4 sequence (Q93009 62-205): as above
Procedure: FIG. 9. Typical isothermal titration calorimetric measurements of the competitive binding of vIRF4 with TRAF domain against cellular substrates. […] Each competitive titration is indicated in the panel.
as §2
To further gauge the competitive nature of vIRF4 binding, the TRAF domain was incubated with an equal molar amount of vIRF4^153-216 in the presence of a 5-fold molar excess of MDM2^137-152, and the mixture was then analyzed by size exclusion chromatography.

[6] = target: T3, HAUSP TRAF domain HAUSP^62-205; experiment: Size exclusion chromatography of complex formation in excess MDM2^137-152; assay type: binding; design: hexahistidine tag (TEV-cleavable) (cleaved yes); made in house; host or cells: E. coli BL21 (DE3) RIPL; details: in the presence of a 5-fold molar excess of MDM2^137-152
[7] = tested on: PEL cells carrying p53 (wt); experiment: Apoptosis assay (Annexin V/PI, flow cytometry) in PEL cells; assay type: cell-based, human; details: 10 μM
Procedure: as §1
The proportion of cells at the S phase was determined by measuring incorporation of BrdU and 7-amino-actionomycin D (ADD) into DNA. Cells were grown at a density of 5×10^6 cells/ml indicated periods with the treatment of either peptide or Nutlin-3a. The cells were pulse-labeled with 10 μM BrdU for 30 min. Cells were permeabilized, fixed and BrdU-, 7AAD-stained using the BrdU Flow Kit (BD Pharmingen) according to manufacturer's instructions. Stained cells were analyzed by flow cytometry to determine the cell-cycle distribution on a FACS Scan (BD FACSCanto™ II). Apoptosis was measured by dual-labeling with the Annexin V-FITC Apoptosis Detection kit I (BD biosciences-Pharmingen) according to the manufacturer's instruction and analyzed by Flow Jo software.
Shown is one representative experiment of three. It was shown that vif1/2 peptides cause cell death by apoptosis.
In this respect, BCBL-1 cells were treated with 100 μM of either vif1 or vif2 peptide for the indicated time periods and then subjected to Annexin V and PI staining, followed by FACS analysis. 10 μM Nutlin-3a was used as a positive control.

T1 sequence (Q93009 whole entry): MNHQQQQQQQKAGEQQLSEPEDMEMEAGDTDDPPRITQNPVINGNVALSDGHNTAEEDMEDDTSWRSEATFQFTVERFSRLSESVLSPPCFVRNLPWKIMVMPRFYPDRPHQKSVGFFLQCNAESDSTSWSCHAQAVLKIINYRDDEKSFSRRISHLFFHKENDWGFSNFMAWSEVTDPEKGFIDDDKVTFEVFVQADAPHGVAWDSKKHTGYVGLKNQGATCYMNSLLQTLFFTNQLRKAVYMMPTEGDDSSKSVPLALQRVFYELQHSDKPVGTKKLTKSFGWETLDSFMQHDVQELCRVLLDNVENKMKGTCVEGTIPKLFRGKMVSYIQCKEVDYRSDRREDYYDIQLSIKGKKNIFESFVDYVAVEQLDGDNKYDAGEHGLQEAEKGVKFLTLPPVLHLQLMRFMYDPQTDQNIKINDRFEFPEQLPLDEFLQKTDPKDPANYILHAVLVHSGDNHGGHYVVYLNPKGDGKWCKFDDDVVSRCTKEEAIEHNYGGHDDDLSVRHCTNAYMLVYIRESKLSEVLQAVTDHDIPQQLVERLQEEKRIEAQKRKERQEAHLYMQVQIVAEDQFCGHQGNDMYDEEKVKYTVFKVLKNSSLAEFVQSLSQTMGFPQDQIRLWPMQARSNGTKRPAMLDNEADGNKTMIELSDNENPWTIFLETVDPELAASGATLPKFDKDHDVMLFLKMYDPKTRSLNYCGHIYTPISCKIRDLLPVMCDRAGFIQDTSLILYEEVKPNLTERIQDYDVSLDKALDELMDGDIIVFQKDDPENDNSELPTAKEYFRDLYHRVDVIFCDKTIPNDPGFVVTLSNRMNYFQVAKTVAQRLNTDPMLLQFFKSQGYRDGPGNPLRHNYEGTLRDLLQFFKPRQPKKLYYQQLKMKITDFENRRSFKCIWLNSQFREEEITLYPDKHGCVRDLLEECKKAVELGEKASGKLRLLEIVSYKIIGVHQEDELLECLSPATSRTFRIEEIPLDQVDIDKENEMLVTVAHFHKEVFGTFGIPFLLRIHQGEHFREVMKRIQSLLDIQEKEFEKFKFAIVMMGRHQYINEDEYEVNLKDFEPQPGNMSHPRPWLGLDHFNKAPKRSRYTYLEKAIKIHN

## TRQVTQASSFTWRVPG (GTRQVTQASSFTWRVPG; Human herpesvirus 8) [vif2]
HAUSP (USP7) [1]
  HAUSP DUB activity against ubiquitinated MDM2: efficiently blocked
USP8
  USP8 DUB activity: can not inhibit
[2]
  HAUSP levels: Neither vif1 nor vif2 peptide treatment altered
HAUSP (USP7) [3]
  HAUSP DUB activity, comparative kinetic analysis: completely suppressed

## Cc1cn(-c2cc(NC(=O)c3ccc(C)c(Nc4nccc(-c5cccnc5)n4)c3)cc(C(F)(F)F)c2)cn1 [nilotinib]
[4]
  response of refractory ALL cells in long-term culture: did not achieve a therapeutic response

## CC[C@H](C)[C@H](NC(=O)[C@H](Cc1c[nH]c2ccccc12)NC(=O)[C@@H](NC(=O)[C@@H](N)CO)C(C)C)C(=O)N1CCC[C@H]1C(=O)N[C@H](C(=O)N[C@@H](CC(N)=O)C(=O)N[C@@H](CCC(=O)O)C(=O)NCC(=O)N[C@@H](C)C(=O)N[C@@H](CO)C(=O)N[C@H](C(=O)N[C@@H](CO)C(=O)NCC(=O)N[C@@H](CCSC)C(=O)O)[C@@H](C)O)C(C)C [vIRF4^202-216]
HAUSP (USP7) [1]
  HAUSP DUB activity against ubiquitinated MDM2: efficiently blocked
[5]; ITC
  tighter binding to the TRAF domain compared to the peptides derived from MDM2 and p53: 28-40 fold
[5]; 20° C.
  n: 0.84 ± 0.01
[5]; ITC, 20° C., pH 7.0
  TΔS: -10.63 kcal/mol
  ΔG: -8.60 kcal/mol
  ΔH: -19.22 ± 0.05 kcal/mol
USP8
  USP8 DUB activity: can not inhibit
HAUSP TRAF domain; competitor titrated against MDM2^137-152-bound TRAF
  association constant (Kobs): 1.09e+07 M⁻¹
HAUSP TRAF domain; competitor titrated against p53^350-364-bound TRAF
  association constant (Kobs): 4.42e+07 M⁻¹
HAUSP TRAF domain; competitor titrated against p53^355-369-bound TRAF
  association constant (Kobs): 3.58e+07 M⁻¹
HAUSP TRAF domain; titrated to MDM2^137-152-TRAF
  Kobs: 10.875 ± 1.308 10^6 M^−1
  ΔHobs: -25.870 ± 0.240 kcal/mol
HAUSP TRAF domain; titrated to p53^350-364-TRAF
  Kobs: 44.200 ± 4.200 10^6 M^−1
  ΔHobs: -19.070 ± 0.194 kcal/mol
HAUSP TRAF domain; titrated to p53^355-369-TRAF
  Kobs: 35.800 ± 3.400 10^6 M^−1
  ΔHobs: -19.150 ± 0.203 kcal/mol
[2]
  HAUSP levels: Neither vif1 nor vif2 peptide treatment altered
[6]
  complex formation with the TRAF domain: formed a stable complex
HAUSP (USP7) [3]
  HAUSP DUB activity, comparative kinetic analysis: weakly attenuated

## C[C@H](NC(=O)[C@@H]1CCCN1C(=O)CNC(=O)[C@H](CCC(N)=O)NC(=O)[C@@H](N)CCC(=O)O)C(=O)N[C@@H](CC(=O)O)C(=O)N[C@@H](CC(=O)O)C(=O)N1CCC[C@H]1C(=O)NCC(=O)N[C@@H](CCC(=O)O)C(=O)NCC(=O)N1CCC[C@H]1C(=O)N[C@@H](CO)C(=O)N[C@H](C(=O)NCC(=O)O)[C@@H](C)O [EBNA1^435-449, reference compound]
[5]; 20° C.
  n: 0.81 ± 0.01
[5]; ITC, 20° C., pH 7.0
  Ka: 2.10 ± 0.15 10^6 M^−1
  TΔS: -8.69 kcal/mol
  ΔG: -8.48 kcal/mol
  ΔH: -17.17 ± 0.13 kcal/mol

## COc1ccc(C2=N[C@@H](c3ccc(Cl)cc3)[C@@H](c3ccc(Cl)cc3)N2C(=O)N2CCNC(=O)C2)c(OC(C)C)c1 [Nutlin-3a]
[7]
  cell death: considerable cell death
